# Experimental data as given in US9155760B2, “Method of prophylaxis of bacterial vaginosis” (STARPHARMA PTY LIMITED, priority 2011, dated 2015).
# Where two headings read alike, the source gives them in different places.
# Legend:
# Mobiluncus. curtisii = assay: Agar dilution MIC assay (anaerobes); format: cell-based; settings: Micromyx Number 4145, 35° C., 48 hours, anaerobic
# Mobiluncus mulieris = assay: Agar dilution MIC assay (anaerobes); format: cell-based; settings: Micromyx Number 4146, 35° C., 48 hours, anaerobic
# [1] = tested on: Lactobacillus acidophilus; assay: Agar dilution MIC assay (anaerobes); format: cell-based; settings: Micromyx Number 0681, 35° C., 48 hours, anaerobic
# Lactobacillus casei = assay: Agar dilution MIC assay (anaerobes); format: cell-based; settings: Micromyx Number 1722, 35° C., 48 hours, anaerobic
# Lactobacillus plantarum = assay: Agar dilution MIC assay (anaerobes); format: cell-based; settings: Micromyx Number 2791, 35° C., 48 hours, anaerobic
# Lactobacillus crispatus = assay: Agar dilution MIC assay (anaerobes); format: cell-based; settings: Micromyx Number 4147, 35° C., 48 hours, anaerobic
# Lactobacillus gasseri = assay: Agar dilution MIC assay (anaerobes); format: cell-based; settings: Micromyx Number 4148, 35° C., 48 hours, anaerobic
# Lactobacillus jensenii = assay: Agar dilution MIC assay (anaerobes); format: cell-based; settings: Micromyx Number 4149, 35° C., 48 hours, anaerobic
# [2] = tested on: Bacteroides fragilis 3374; assay: Agar dilution MIC assay (anaerobes); format: cell-based; settings: Micromyx Number 3374, 35° C., 48 hours, anaerobic
# [3] = tested on: Bacteroides fragilis 0123 (ATCC 25285); assay: Agar dilution MIC assay (anaerobes), quality control organism; format: cell-based; settings: 48 hours, anaerobic
# Bacteroides ovatus 3503 = assay: Agar dilution MIC assay (anaerobes); format: cell-based; settings: Micromyx Number 3503, 35° C., 48 hours, anaerobic
# B. ovatus 3508 = assay: Agar dilution MIC assay (anaerobes); format: cell-based, Bacteroides ovatus; settings: Micromyx Number 3508, 35° C., 48 hours, anaerobic
# Bacteroides ureolyticus = assay: Agar dilution MIC assay (anaerobes); format: cell-based; settings: Micromyx Number 4150, 35° C., 48 hours, anaerobic
# Fusobacterium nucleatum = assay: Agar dilution MIC assay (anaerobes); format: cell-based; settings: Micromyx Number 1269, 35° C., 48 hours, anaerobic
# Anaerococcus prevotii = assay: Agar dilution MIC assay (anaerobes); format: cell-based; settings: Micromyx Number 4151, 35° C., 48 hours, anaerobic
# Anaerococcus tetradius = assay: Agar dilution MIC assay (anaerobes); format: cell-based; settings: Micromyx Number 4152, 35° C., 48 hours, anaerobic
# [4] = tested on: Peptostreptococcus anaerobius; assay: Agar dilution MIC assay (anaerobes); format: cell-based; settings: Micromyx Number 3526, 35° C., 48 hours, anaerobic
# Prevotella bivia = assay: Agar dilution MIC assay (anaerobes); format: cell-based; settings: Micromyx Number 3447, 35° C., 48 hours, anaerobic
# Prevotella intermedia = assay: Agar dilution MIC assay (anaerobes); format: cell-based; settings: Micromyx Number 3002, 35° C., 48 hours, anaerobic
# [5] = tested on: Prevotella melaninogenica; assay: Agar dilution MIC assay (anaerobes); format: cell-based; settings: Micromyx Number 3005, 35° C., 48 hours, anaerobic
# Porphyromonas levii = assay: Agar dilution MIC assay (anaerobes); format: cell-based; settings: Micromyx Number 3003, 35° C., 48 hours, anaerobic
# [6] = tested on: Porphyromonas asaccharolytica; assay: Agar dilution MIC assay (anaerobes); format: cell-based; settings: Micromyx Number 3004, 35° C., 48 hours, anaerobic
# Gardnerella vaginalis = assay: Agar dilution MIC assay (anaerobes); format: cell-based; settings: Micromyx Number 4153, 35° C., 48 hours, anaerobic
# [7] = Bacteroides ovatus, read-out: MIC
smiles,measurement,setting,value
CC(=O)COc1cc(S(=O)(=O)O)cc2cc(S(=O)(=O)O)ccc12 [SPL7013],MIC,Mobiluncus. curtisii,>30 mg/mL
same,MIC,Mobiluncus mulieris,>30 mg/mL
same,MIC,[1],>30000 µg/mL
same,MIC,Lactobacillus casei,>30000 µg/mL
same,MIC,Lactobacillus plantarum,>30000 µg/mL
same,MIC,Lactobacillus crispatus,10000 µg/mL
same,MIC,Lactobacillus gasseri,>30000 µg/mL
same,MIC,Lactobacillus jensenii,>30000 µg/mL
same,MIC,[2],>30000 µg/mL
same,MIC,"[3]; Micromyx Number 0123, 35° C.",>30000 µg/mL
same,MIC,Bacteroides ovatus 3503,>30000 µg/mL
same,MIC,B. ovatus 3508,30 mg/mL
same,MIC,Bacteroides ureolyticus,>30000 µg/mL
same,MIC,Fusobacterium nucleatum,>30 mg/mL
same,MIC,Anaerococcus prevotii,>30000 µg/mL
same,MIC,Anaerococcus tetradius,>30 mg/mL
same,MIC,[4],>30 mg/mL
same,MIC,Prevotella bivia,30 mg/mL
same,MIC,Prevotella intermedia,>30 mg/mL
same,MIC,[5],>30 mg/mL
same,MIC,Porphyromonas levii,>30000 µg/mL
same,MIC,[6],>30 mg/mL
same,MIC,Gardnerella vaginalis,5000 µg/mL
"C[C@@H](O)[C@H]1C(=O)N2C(C(=O)O)=C(SCCN=CN)C[C@H]12 [Imipenem, reference compound]",MIC,"Mobiluncus. curtisii; Mobiluncus curtisii, read-out: MIC",≤ 3e-05 mg/mL
same,MIC,"Mobiluncus mulieris; Mobiluncus mulieris, read-out: MIC",≤ 3e-05 mg/mL
same,MIC,"[1]; Lactobacillus acidophilus, read-out: MIC",0.12 µg/mL
same,MIC,"Lactobacillus casei; Lacticaseibacillus casei, read-out: MIC",0.5 µg/mL
same,MIC,"Lactobacillus plantarum; Lactiplantibacillus plantarum, read-out: MIC",2 µg/mL
same,MIC,"Lactobacillus crispatus; Lactobacillus crispatus, read-out: MIC",0.12 µg/mL
same,MIC,"Lactobacillus gasseri; Lactobacillus gasseri, read-out: MIC",0.25 µg/mL
same,MIC,"Lactobacillus jensenii; Lactobacillus jensenii, read-out: MIC",0.25 µg/mL
same,MIC,"[2]; Bacteroides fragilis, read-out: MIC",2 µg/mL
same,MIC,"[3]; Bacteroides fragilis, ATCC25285, Micromyx Number 0123, 35° C., read-out: MIC",0.12 µg/mL
same,MIC,Bacteroides ovatus 3503; [7],0.25 µg/mL
same,MIC,B. ovatus 3508; [7],≤ 3e-05 mg/mL
same,MIC,"Bacteroides ureolyticus; Campylobacter ureolyticus, read-out: MIC",0.25 µg/mL
same,MIC,"Fusobacterium nucleatum; Fusobacterium nucleatum, read-out: MIC",≤ 3e-05 mg/mL
same,MIC,"Anaerococcus prevotii; Anaerococcus prevotii, read-out: MIC",0.06 µg/mL
same,MIC,"Anaerococcus tetradius; Anaerococcus tetradius, read-out: MIC",≤ 3e-05 mg/mL
same,MIC,"[4]; Peptostreptococcus anaerobius, read-out: MIC",≤ 3e-05 mg/mL
same,MIC,"Prevotella bivia; Prevotella bivia, read-out: MIC",≤ 3e-05 mg/mL
same,MIC,"Prevotella intermedia; Prevotella intermedia, read-out: MIC",≤ 3e-05 mg/mL
same,MIC,"[5]; Prevotella melaninogenica, read-out: MIC",≤ 3e-05 mg/mL
same,MIC,"Porphyromonas levii; Porphyromonas levii, read-out: MIC",0.06 µg/mL
same,MIC,"[6]; Porphyromonas asaccharolytica, read-out: MIC",≤ 3e-05 mg/mL
same,MIC,"Gardnerella vaginalis; Gardnerella vaginalis, read-out: MIC",0.12 µg/mL
